Test results from patent US20190375708A1 (VenatoRx Pharmaceuticals, Inc., priority 2018, published 2019).

Columns and labels:
[1] = tested on: HBV replication in HepAD38 cells; test: Anti-HBV replication assay in HepAD38 cells (QPCR of extracellular HBV DNA); format: cell-based, HBV (genotype D, serotype ayw); conditions: Hepatitis B virus, 168 h, 7 days incubation, extracellular HBV DNA by QPCR, read-out: Anti-HBV EC50
Procedure, shortened: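 Read-out is QPCR of HBV DNA released into culture supernatant, converted to percent of vehicle control and fitted to give EC50. Cells were HepAD38 induced by tetracycline removal and dosed […] for 7 days.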

[2] = In vitro cytotoxicity assay (MTT cell viability) in HepG2 cells; format: cell-based, human; conditions: human
Procedure, shortened: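 Read-out: MTT formazan absorbance at 492 nm, expressed as % of vehicle signal; CC50 by 4-parameter non-linear regression. Parental HepG2, 20,000 cells/well, treated 7 days with compound from 30 μM down to 1.0 nM.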

Compound | EC50 [1] | CC50 at 7 days [2]
Cc1c(C(=O)Nc2ccnc(Cl)c2)c(C)n(C)c1C(=O)C(=O)N[C@H](C)C(F)(F)F [Example 208, (R)-N-(2-chloropyridin-4-yl)-1,2,4-trimethyl-5-(2-oxo-2-((1,1,1-trifluoropropan-2-yl)amino)acetyl)-1H-pyrrole-3-carboxamide] | < 50 nM | > 30000 nM
CC(C)(CO)NC(=O)C(=O)c1c(Cl)c(C(=O)Nc2ccnc(F)c2)c2n1CCCC2 [Example 512, 2-chloro-N-(2-fluoropyridin-4-yl)-3-(2-((1-hydroxy-2-methylpropan-2-yl)amino)-2-oxoacetyl)-5,6,7,8-tetrahydroindolizine-1-carboxamide] | 500 to 1000 nM | > 30000 nM
Cc1cc(NC(=O)c2c(C)c(C(=O)C(=O)NC(C)(C)CN3CCN(C)CC3)n(C)c2C)ccc1F [Example 651, N-(4-fluoro-3-methylphenyl)-1,2,4-trimethyl-5-(2-((2-methyl-1-(4-methylpiperazin-1-yl)propan-2-yl)amino)-2-oxoacetyl)-1H-pyrrole-3-carboxamide] | < 50 nM | > 30000 nM
Cc1cc(NC(=O)c2c(C)c(C(=O)C(=O)NCC(C)(O)c3cccs3)n(C)c2C)ccc1F (stereo not drawn) [Example 647, N-(4-fluoro-3-methylphenyl)-5-(2-((2-hydroxy-2-(thiophen-2-yl)propyl)amino)-2-oxoacetyl)-1,2,4-trimethyl-1H-pyrrole-3-carboxamide] | < 50 nM | > 30000 nM
Cc1csc(NC(=O)C(=O)c2c(C)c(C(=O)Nc3ccc(F)c(C)c3)c(C)n2C)n1 [Example 211, N-(4-fluoro-3-methylphenyl)-1,2,4-trimethyl-5-(2-((4-methylthiazol-2-yl)amino)-2-oxoacetyl)-1H-pyrrole-3-carboxamide] | < 50 nM | > 30000 nM
Cc1c(C(=O)Nc2ccnc(F)c2)c(C)n(C)c1C(=O)C(=O)NC12CC3CC(CC(O)(C3)C1)C2 [Example 188, N-(2-fluoropyridin-4-yl)-5-(2-(((1r,3s,5R,7S)-3-hydroxyadamantan-1-yl)amino)-2-oxoacetyl)-1,2,4-trimethyl-1H-pyrrole-3-carboxamide] | 50 to 499 nM | > 30000 nM
Cc1cc(NC(=O)c2c(C)c(C(=O)C(=O)N[C@@H](C(=O)O)C3CCCCC3)n(C)c2C)ccc1F [Example 69, (R)-2-cyclohexyl-2-(2-(4-((4-fluoro-3-methylphenyl)carbamoyl)-1,3,5-trimethyl-1H-pyrrol-2-yl)-2-oxoacetamido)acetic acid] | 500 to 1000 nM | > 30000 nM
Cc1cc(NC(=O)c2c(C)c(C(=O)C(=O)N[C@H]3CC[C@](C)(O)CC3)n(C)c2C)ccc1F [Example 213, N-(4-fluoro-3-methylphenyl)-5-(2-(((1r,4r)-4-hydroxy-4-methylcyclohexyl)amino)-2-oxoacetyl)-1,2,4-trimethyl-1H-pyrrole-3-carboxamide] | < 50 nM | > 30000 nM
Cc1cc(NC(=O)c2c(C)c(C(=O)C(=O)NCc3nc(C(F)(F)F)no3)n(C)c2C)ccc1F [Example 243, N-(4-fluoro-3-methylphenyl)-1,2,4-trimethyl-5-(2-oxo-2-(((3-(trifluoromethyl)-1,2,4-oxadiazol-5-yl)methyl)amino)acetyl)-1H-pyrrole-3-carboxamide] | < 50 nM | 5000 to 30000 nM
Cc1cc(NC(=O)c2c(C)c(C(=O)C(=O)NCC(C)(C)CO)n3c2CCCC3)cnc1F [Example 476, N-(6-fluoro-5-methylpyridin-3-yl)-3-(2-((3-hydroxy-2,2-dimethylpropyl)amino)-2-oxoacetyl)-2-methyl-5,6,7,8-tetrahydroindolizine-1-carboxamide] | > 1000 nM | 5000 to 30000 nM
O=C(NC1(CO)CCC1)C(=O)c1c(Cl)c(C(=O)Nc2ccc(F)c(F)c2)c2n1CCCC2 [Example 499, 2-chloro-N-(3,4-difluorophenyl)-3-(2-((1-(hydroxymethyl)cyclobutyl)amino)-2-oxoacetyl)-5,6,7,8-tetrahydroindolizine-1-carboxamide] | < 50 nM | > 30000 nM
Cc1cc(NC(=O)c2cc(C(=O)C(=O)NCC(C)(C)O)n3c2CCCC3)ccc1F [Example 419, N-(4-fluoro-3-methylphenyl)-3-(2-((2-hydroxy-2-methylpropyl)amino)-2-oxoacetyl)-5,6,7,8-tetrahydroindolizine-1-carboxamide] | > 1000 nM | > 30000 nM
CC(C)(CO)NC(=O)C(=O)c1cc(C(=O)Nc2ccc(F)c(F)c2)c2n1CCCC2 [Example 426, N-(3,4-difluorophenyl)-3-(2-((1-hydroxy-2-methylpropan-2-yl)amino)-2-oxoacetyl)-5,6,7,8-tetrahydroindolizine-1-carboxamide] | 50 to 499 nM | > 30000 nM
Cc1cc(Cl)cc(NC(=O)c2c(C)c(C(=O)C(=O)N[C@H](C)C(F)(F)F)n(C)c2C)c1 [Example 686, (R)-N-(3-chloro-5-methylphenyl)-1,2,4-trimethyl-5-(2-oxo-2-((1,1,1-trifluoropropan-2-yl)amino)acetyl)-1H-pyrrole-3-carboxamide] | < 50 nM | 500 to 4990 nM
Cc1cc(NC(=O)c2c(C)c(C(=O)C(=O)NC(C)(C)CO)n3c2CCCC3)ccc1F [Example 436, N-(4-fluoro-3-methylphenyl)-3-(2-((1-hydroxy-2-methylpropan-2-yl)amino)-2-oxoacetyl)-2-methyl-5,6,7,8-tetrahydroindolizine-1-carboxamide] | 50 to 499 nM | > 30000 nM
Cc1cc(NC(=O)c2cc(C(=O)C(=O)NC(C)(C)C(N)=O)n3c2CCCC3)ccc1F [Example 406] | 500 to 1000 nM | > 30000 nM
CNC(=O)[C@@H](NC(=O)C(=O)c1c(C)c(C(=O)Nc2ccc(F)c(C)c2)c(C)n1C)[C@H](C)O [Example 58, N-(4-fluoro-3-methylphenyl)-5-(2-(((2S,3S)-3-hydorxy-1-(methylamino)-1-oxobutan-2-yl)amino)-2-oxoacetyl)-1,2,4-trimethyl-1H-pyrrole-3-carboxamide] | 500 to 1000 nM | > 30000 nM
CC[C@@H](CO)NC(=O)C(=O)c1c(C)c(C(=O)Nc2ccc(F)c(C)c2)c(C)n1C [Example 139, (S)-N-(4-fluoro-3-methylphenyl)-5-(2-((1-hydroxybutan-2-yl)amino)-2-oxoacetyl)-1,2,4-trimethyl-1H-pyrrole-3-carboxamide] | < 50 nM | > 30000 nM
Cc1cc(NC(=O)c2c(C)c(C(=O)C(=O)NC3CCSCC3)n(C)c2C)ccc1F [Example 223, N-(4-fluoro-3-methylphenyl)-1,2,4-trimethyl-5-(2-oxo-2-((tetrahydro-2H-thiopyran-4-yl)amino)acetyl)-1H-pyrrole-3-carboxamide] | < 50 nM | 5000 to 30000 nM
COc1c(C(=O)Nc2ccc(F)c(F)c2)c(C)n(C)c1C(=O)C(=O)N[C@H]1CC[C@@H](O)CC1 [Example 383, N-(3,4-difluorophenyl)-5-(2-(((1s,4s)-4-hydroxycyclohexyl)amino)-2-oxoacetyl)-4-methoxy-1,2-dimethyl-1H-pyrrole-3-carboxamide] | 500 to 1000 nM | > 30000 nM
O=C(NC1(CO)CCC1)C(=O)c1c(Cl)c(C(=O)Nc2ccc(F)c(Cl)c2)c2n1CCC2 [Example 565, 6-chloro-N-(3-chloro-4-fluorophenyl)-5-(2-((1-(hydroxymethyl)cyclobutyl)amino)-2-oxoacetyl)-2,3-dihydro-1H-pyrrolizine-7-carboxamide] | < 50 nM | 5000 to 30000 nM
COCC(C)(C)NC(=O)C(=O)c1c(C)c(C(=O)Nc2cnc(F)c(C)c2)c(C)n1CCF [Example 226, N-(6-fluoro-5-methylpyridin-3-yl)-1-(2-fluoroethyl)-5-(2-((1-methoxy-2-methylpropan-2-yl)amino)-2-oxoacetyl)-2,4-dimethyl-1H-pyrrole-3-carboxamide] | 500 to 1000 nM | > 30000 nM
Cc1cc(NC(=O)c2c(C)c(C(=O)C(=O)N[C@H](CO)C(=O)O)n(C)c2C)ccc1F [Example 33, (2-(4-((4-fluoro-3-methylphenyl)carbamoyl)-1,3,5-trimethyl-1H-pyrrol-2-yl)-2-oxoacetyl)-D-serine] | > 1000 nM | > 30000 nM
Cc1cc(NC(=O)c2c(C)c(C(=O)C(=O)N3CCC(F)(F)C3)n(C)c2C)cnc1F [Example 192, 5-(2-(3,3-difluoropyrrolidin-1-yl)-2-oxoacetyl)-N-(6-fluoro-5-methylpyridin-3-yl)-1,2,4-trimethyl-1H-pyrrole-3-carboxamide] | 500 to 1000 nM | > 30000 nM
Cc1cc(NC(=O)c2c(C)c(C(=O)C(=O)NC3CCSCC3)n(C)c2C)cnc1F [Example 191, N-(6-fluoro-5-methylpyridin-3-yl)-1,2,4-trimethyl-5-(2-oxo-2-((tetrahydro-2H-thiopyran-4-yl)amino)acetyl)-1H-pyrrole-3-carboxamide] | < 50 nM | > 30000 nM
Cc1cc(NC(=O)c2c(C)c(C(=O)C(=O)Nc3ccc4c(c3)COB4O)n(C)c2C)ccc1F [Example 678, N-(4-fluoro-3-methylphenyl)-5-(2-((1-hydroxy-1,3-dihydrobenzo[c][1,2]oxaborol-5-yl)amino)-2-oxoacetyl)-1,2,4-trimethyl-1H-pyrrole-3-carboxamide] | < 50 nM | 5000 to 30000 nM
Cc1noc([C@H](C)NC(=O)C(=O)c2c(Cl)c(C(=O)Nc3ccc(F)c(C)c3)c3n2CCC3)n1 [Example 545, (S)-6-chloro-N-(4-fluoro-3-methylphenyl)-5-(2-((1-(3-methyl-1,2,4-oxadiazol-5-yl)ethyl)amino)-2-oxoacetyl)-2,3-dihydro-1H-pyrrolizine-7-carboxamide] | < 50 nM | 5000 to 30000 nM
